These results are taken from patent publication US20260355199A1, “COMPOSITIONS AND METHODS FOR TREATING OR PREVENTING NONALCOHOLIC STEATOHEPATITIS (NASH), ANOREXIA, DEPRESSION, ENDOMETRIOSIS, AND OTHER DISEASES OR DISORDERS” (priority 2022, published 2026).

“Also recorded” adds a separate entry of the source.

Assay [1] relates to TET3. Briefly: TET3 protein stability (cycloheximide) in RAW 264.7 cells. Format: cell-based, mouse. Particulars: 10 μM, with cycloheximide. Here is the method:
For TET3 protein stability assay, cells in 24-well plates were incubated with vehicle or Bobcat339 at a final concentration of 10 μM for 3 hours, followed by addition of cycloheximide (CHX, Cell Signaling, 2112) at a final concentration of 50 μg/mL in the presence of 10 μM of Bobcat339. Proteins were harvested at 0, 1, 2, and 3 hours after addition of CHX.

Assay [2] deals with Caspase-1. Briefly: Caspase-1 assay in human MDMs. Format: cell-based. Conditions: 10 μM, 48 h. As for the experimental part:
For TET3 expression restoration experiments, cells seeded in 24-well plates were infected with Ad-GFP or Ad-TET3 at 4000 gc/cell. Following 16 h of infection, vehicle or Bobcat339 were added at a final concentration of 10 μM. Protein and RNA were isolated 48 hours later and analyzed.
These were carried out using the Apoptosis/Caspase-1 assay kit (MyBioSource, MBS258046). Briefly, after wash with PBS, cells were incubated with 1×FAM-FLCA working solution in 300 μL growth media at 37 °C for 1 hour, followed by wash with 1× Cellular Wash Buffer three times. Hoechst 33342 was applied to counter-stain the cells for 15 min. Cells were then covered with mounting media and coverslips and scoped using a Keyence BZ-X700 fluorescence microscope.

The test system of assay [3] is HT-22 mouse hippocampal neuronal cells. Kind of assay: DNA 5hmC level in HT-22 hippocampal neuronal cells. It is filed as cell-based. Conditions: 10 μM, 24 h. The text has this: It was not unprecedented that compounds initially developed as protein function inhibitors were later serendipitously found to be protein degraders (Bekes, M. et al., 2022, Nature Reviews Drug Discovery, 21(3):181-200).

Assay [4] concerns TET3. Briefly: TET3 protein in human MDMs. Conditions: 24 h. Format: cell-based. Here is the method:
For siRNA transfection in a 24-well plate scale of MDMs, NT siRNA or TET3 siRNA (4392420/s47239, Ambion) was mixed with 25 μL of OPTI-MEM by gentle pipetting. In parallel, 1.5 μL of Lipofectamine RNAiMAX was mixed with 25 μL of OPTI-MEM by gentle pipetting. Following 5 min of incubation at RT, the resulting 50 μl of transfection solution was added to each well of cells containing 450 μL of growth media.
Bobcat339 Treatment of Cultured Cells Bobcat339 powder (Sigma-Aldrich, SML2611) was freshly dissolved in DMSO at a concentration of 5 mM and filtered through a 0.22 micron. […]
For cultured MDMs, cells were primed with CM-Endo or TGF-β1 (PeproTech, 100-21) for 36-48 h (to increase TET3 expression) before Bobcat339 treatment.
Cells were homogenized in situ using a pipette tip in 2×SDS-sample buffer with 10% β-mercaptoethanol at RT followed by heating at 100 °C for 5 min with occasional vortexing. The samples were loaded onto a 4-15% gradient SDS gel (Bio-rad, 456-8086) (10 μL/well) and transferred to nitrocellulose membranes, followed by Western blot analysis. […]

Assay [5] deals with NPY and VGAT. Kind of assay: NPY and VGAT expression in leptin-treated GT1-7 cells. It is filed as cell-based, mouse. Conditions: TET3-dependent manner. As for the experimental part: Mouse GT1-7 hypothalamic neuronal cell line (Sigma-Aldrich, SCC116), human SH-SY5Y neuronal blastoma cell line (ATCC, CRL-2266), and embryonic mouse hypothalamus cell line N11 (mHypoE-N11) (Cedarlane, CLU107) were purchased and cultured according to the manufacturers' instructions. For siRNA transfection in a 24-well plate scale, cells were seeded at a density of 2×10^5 cells/well the day before transfection. To prepare siRNA transfection solution for each well of cells, 5 pmol of NT siRNA (non-targeting control siRNA, AM4636, Ambion), Tet3 siRNA (siRNA specifically targeting mouse Tet3, 4390815/s101483, Ambion), or TET3 siRNA (siRNA specifically targeting human TET3, 4392420/s47238, Ambion) (Cao et al., 2019, Oncogene, 38:5356-5366; Xu et al., 2020, Cell Rep., 30:1310-1318) were mixed with 25 μl of OPTI-MEM (Gibco, 31985-070) by gentle pipetting (Cao, T. et al., 2019, Oncogene, 38:5356-5366; Xu, Y. et al., 2020, Cell Reports, 30:1310-1318 e5). In parallel, 1.5 μl of Lipofectamine RNAiMAX (Invitrogen, 13778-150) was mixed with 25 μl of OPTI-MEM by gentle pipetting. Following 5 min of incubation at room temperature, the resulting 50 μl of transfection solution was added to one well of cells containing 1 ml culture media. […]

For `Nc1nc(=O)n(-c2cccc(-c3ccccc3)c2)cc1Cl` [Bobcat339, 4-Amino-1-[1,1′-biphenyl]-3-yl-5-chloro-2(1H)-pyrimidinone], the TET3 protein stability entry in assay [1] is “less stable”. Moreover, the “half-life of TET3” value is listed as ~ 80 minutes in assay [1] (RAW) and ~ 80 min in assay [1] (macrophages). Moreover, the “apoptosis (Caspase-1)” value in assay [2] is reported as “increased apoptosis; also recorded: a significant increase in pyroptotic cell death”. For the same compound, the “DNA 5hmC levels” value in assay [3] is on record as “decreased DNA 5hmC levels”. In addition, in assay [4] (10 μM), the TET3 protein level result is recorded as “a decrease in TET3 expression; also recorded: decreased the level of TET3 protein”. Also, in assay [4] (10 mM (so in the source)), the “steady-state level of TET3 protein” value was “a decrease in the steady-state level of TET3 protein”.
With “leptin: adipose hormone; mouse leptin L3772-1MG or human leptin L4146-1MG, Sigma Aldrich”, the “NPY and VGAT expression” value in assay [5] was “negatively affected the expression of NPY and VGAT”.
